Laboratory results as given in patent publication US20110144029A1, “Model Systems and Materials for the Study and Treatment of Neurodegenerative Diseases” (BOARD OF REGENTS, THE UNIVERSITY OF TEXAS SYSTEM, priority 2009, published 2011).
Entries after “also recorded” stand apart in the source; their conditions may differ. Where a SMILES comes first, the peptide text is derived from it. [ ]: non-standard residue; d: D form.

What was measured:
[1] = tested on: cerebellar granule neurons; experiment: Live/Dead (Red/Green) viability assay in cultured cerebellar granule neurons; assay type: cell-based, rat; conditions: 24 h peptide treatment, HK medium
Experimental: Neuronal cultures were switched to serum-free medium T-peptide, K-peptide, Core-peptide, V-peptide. VV-peptide, and T (L)-peptide. All peptides were used at 25 μM concentration. Phase contrast micrographs show appearance of the cultures after 24 h of peptide treatment. The Live/Dead viability assay was also performed. Nuclei of dead cells are stained red whereas cytoplasm of living cells are stained green. In the case of sick and dying cells, green staining is condensed;
(§1) Cerebellar granule neurons were switched to serum-free medium containing various concentrations of T-peptide, K-peptide, Core-peptide, V-peptide, VV-peptide, and T (L)-peptide. Cell viability was measured using two independent methods 24 h after peptide treatment and results are graphed. * indicates p<0.05 compared with control cells that were treated with HK: (4A) Results from Red/Green viability assay, (4B) Results from MTT assay;
Culturing and treatment of neurons: Cerebellar granule neurons were cultured from 7-8 day old rats as previously described. The neurons were plated in 24-well with poly-L-lysine coated glass coverslips at a density of ˜1 million cells/well in Basal Eagle's Medium with Earle's salts (BME) supplemented with 10% FCS, 25 mM KCl, 2 mM glutamine and […] gentamicin. To prevent mitosis of glial cells, cytosine arabinofuranoside ([…]) was added to culture 16-20 hrs after plating. Neuronal cultures were treated with peptides 6-7 days after plating. For treatment, the cultures were switched to serum-free medium containing 25 mM KCl (referred to as high potassium or HK medium). Although serum is required for proper maturation, after 5 days in culture, the neurons survive normally in the absence of serum provided depolarizing levels of KCl is added.
Cell viability quantification: Cell viability was quantified using the Live/Dead assays with a commercially available kit (Invitrogen). This is a two-color fluorescence assay utilizing two cell-permeable compounds, calcein acetoxymethyl (calcein AM) and ethidium homodimer-1 (EthD-1). Live cells have intracellular esterases that convert non-fluorescent calcein AM to the intensely green fluorescent calcein, which is retained within the cytoplasm of cells. Because dead cells have damaged membranes, EthD-1 enters and is fluorescent when bound to nucleic acids. EthD-1 stains the nuclei of damaged or dead cells. As recommended by the manufacturer, cells plated in wells with cover-slips were incubated in Live/Dead reagent (1 uM calcein AM and 4 uM EthD-1) for 30 min, and then mounted on slides. Cell viability was also analyzed using the MTT [3-(4,5-Dimethylthiazol-2-yl)-2,5-diphenyltetrazolium bromide] assay based on the evaluation of mitochondrial function. MTT assays were performed as previously described. Briefly, MTT (5 mg/ml in culture medium) was added to the culture medium and the cells incubated at 37° C. for 1 h. The assay was stopped by adding lysis buffer [20% sodium dodecyl sulfate (SDS) in 50% N,N-dimethylformamide, pH 4.7]. Absorbance was measured spectrophotometrically at 570 nm after an overnight incubation at room temperature.

[2] = tested on: cerebellar granule neurons; experiment: MTT assay in cerebellar granule neurons; assay type: cell-based, rat; conditions: 24 h peptide treatment
Experimental: as §1
Culturing and treatment of neurons: Cerebellar granule neurons were cultured from 7-8 day old rats as previously described. The neurons were plated in 24-well with poly-L-lysine coated glass coverslips at a density of ˜1 million cells/well in Basal Eagle's Medium with Earle's salts (BME) supplemented with 10% FCS, 25 mM KCl, 2 mM glutamine and […] gentamicin. […]
Cell viability quantification: Cell viability was quantified using the Live/Dead assays with a commercially available kit (Invitrogen). This is a two-color fluorescence assay utilizing two cell-permeable compounds, calcein acetoxymethyl (calcein AM) and ethidium homodimer-1 (EthD-1). […] Cell viability was also analyzed using the MTT [3-(4,5-Dimethylthiazol-2-yl)-2,5-diphenyltetrazolium bromide] assay based on the evaluation of mitochondrial function. […] Absorbance was measured spectrophotometrically at 570 nm after an overnight incubation at room temperature.

[3] = Polymerization kinetics by Thioflavin S (ThS) fluorescence in the presence of heparin; assay type: physicochemical; conditions: for A (first phase / growth curve): ST-peptide according to Eqn. [2]
Experimental: Aggregation kinetics of T-peptide (filled triangles), V-peptide (filled diamonds), F-peptide (X), Core peptide (open triangles), VV-peptide (open diamonds) and K-peptide (filled circles). […] Solid lines represent fitted values;
Kinetic analysis: Polymerization kinetics were measured by monitoring the increase in Thioflavin S (ThS) fluorescence at 490 nm (440 nm excitation). Slit widths were 15 and 20 nm respectively for excitation and emission. All measurements were carried out at 21° C. with a Perkin Elmer LS50B spectrofluorimeter using a 75 μL quartz cell. Data points were collected at 6 s intervals over the course of the experiment (60 min). In order to initiate polymerization a freshly filtered stock solution was diluted to 10 μM in 200 μL of Buffer A containing 33 μM heparin (Sigma-Aldrich; 3,000 MW) and 100 μM Thioflavin S (ThS). Kinetics data, corrected for the blank, were fit using a non-linear least squares algorithm to a Gompertz-like growth curve {{260 Necula, M. 2004}} (Eqn.)
where y is defined as the fluorescence signal at time t, ti corresponds to the inflection point of the curve, or the time of maximum growth rate, A is the maximum fluorescence observed for a given sample, and b=1/k, where k is the rate constant of aggregation, in units of s^−1. Lag-times were calculated as ti−b. The pre-growth curve exponential, e^(−k′t) was inserted to take into account the slow decrease in fluorescent intensity resulting from ThS bleaching, quenching and gravitational precipitation of the amyloid-ThS complex. Standard errors in fitted parameters were estimated assuming a 10% error in the sum of the squares.

[4] = previously shown [19, 20]; cited from earlier work
[5] = tested on: culture; experiment: Neurotoxicity of non-tau related aggregating peptides in culture; assay type: cell-based; conditions: FIG. 13
Excerpt: FIG. 13 is an image of the non-tau related aggregating peptides are not neurotoxic.

[6] = Transmission electron microscopy (TEM) of peptide aggregates; assay type: physicochemical; conditions: 100 μM peptide in Buffer A, uranyl acetate stain
Experimental: All peptides were prepared at 100 μM in Buffer A and stained with uranyl acetate;
Transmission Electron Microscopy (TEM): Filtered stock peptide solutions were diluted to 100 μM in 5 mM MOPS containing 0.1% NaN3, 0.15 M NaCl, pH 7.2 (Buffer A) and were incubated at room temperature overnight. Samples were loaded onto carbon-coated Formvar copper grids (200 mesh) and stained with 2% wt/wt uranyl acetate. A JEOL 1200 EX scope interfaced to a digital camera was used to visualize samples.

CC(=O)N[C@@H](CCCNC(=N)N)C(=O)N[C@@H](CCCNC(=N)N)C(=O)N[C@@H](CCCNC(=N)N)C(=O)N[C@@H](CCCNC(=N)N)C(=O)N[C@@H](CCCNC(=N)N)C(=O)N[C@@H](CCCNC(=N)N)C(=O)N[C@@H](CCCNC(=N)N)C(=O)N[C@@H](CCCNC(=N)N)C(=O)N[C@@H](CCCNC(=N)N)C(N)=O [Ac—R9—NH2, reference compound]
neurotoxicity / effect on neuronal survival [1]: no effect on neuronal survival

CC[C@@H](C)[C@@H](NC(=O)[C@@H](CCC(N)=O)NC(=O)[C@H](NC(C)=O)C(C)C)C(=O)N[C@@H](C(=O)N[C@H](Cc1ccc(O)cc1)C(=O)N[C@H](CCCCN)C(N)=O)C(C)C [Core-peptide, Ac-vqivyk-NH2] (Ac-[dV][dQ][dI][dV][dY][dK]-NH2)
MTT assay result (mitochondrial function, words) [2]: mitochondrial dysfunction | neurotoxicity / effect on neuronal survival [1]: not toxic

CC[C@@H](C)[C@@H](NC(=O)[C@@H](CCC(N)=O)NC(=O)[C@H](NC(C)=O)C(C)C)C(=O)N[C@@H](C(=O)N[C@H](CCCCN)C(=O)N[C@H](CCCCN)C(=O)N[C@@H](CCCNC(=N)N)C(=O)N[C@@H](CCCNC(=N)N)C(=O)N[C@@H](CCCNC(=N)N)C(=O)N[C@@H](CCCNC(=N)N)C(=O)N[C@@H](CCCNC(=N)N)C(=O)N[C@@H](CCCNC(=N)N)C(=O)N[C@@H](CCCNC(=N)N)C(=O)N[C@@H](CCCNC(=N)N)C(=O)N[C@@H](CCCNC(=N)N)C(N)=O)C(C)C [K-peptide, Ac-vqivkk-R9—NH2]
neurotoxicity / effect on neuronal survival [1]: neither K-peptide nor VV-peptide reduced neuronal survival

CC(=O)N[C@@H](C(=O)N[C@H](CCC(N)=O)C(=O)N[C@@H](C(=O)N[C@@H](C(=O)N[C@H](Cc1ccc(O)cc1)C(=O)N[C@H](CCCCN)C(=O)N[C@@H](CCCNC(=N)N)C(=O)N[C@@H](CCCNC(=N)N)C(=O)N[C@@H](CCCNC(=N)N)C(=O)N[C@@H](CCCNC(=N)N)C(=O)N[C@@H](CCCNC(=N)N)C(=O)N[C@@H](CCCNC(=N)N)C(=O)N[C@@H](CCCNC(=N)N)C(=O)N[C@@H](CCCNC(=N)N)C(=O)N[C@@H](CCCNC(=N)N)C(N)=O)C(C)C)C(C)C)C(C)C [V-peptide, Ac-vqvvyk-R9—NH2]
neurotoxicity / effect on neuronal survival [1]: moderate level of cell death

CC(=O)N[C@@H](C(=O)N[C@H](CCC(N)=O)C(=O)N[C@@H](C(=O)N[C@@H](C(=O)N[C@@H](C(=O)N[C@H](CCCCN)C(=O)N[C@@H](CCCNC(=N)N)C(=O)N[C@@H](CCCNC(=N)N)C(=O)N[C@@H](CCCNC(=N)N)C(=O)N[C@@H](CCCNC(=N)N)C(=O)N[C@@H](CCCNC(=N)N)C(=O)N[C@@H](CCCNC(=N)N)C(=O)N[C@@H](CCCNC(=N)N)C(=O)N[C@@H](CCCNC(=N)N)C(=O)N[C@@H](CCCNC(=N)N)C(N)=O)C(C)C)C(C)C)C(C)C)C(C)C [VV-peptide, Ac-vqvvvkR9—NH2]
neurotoxicity / effect on neuronal survival [1]: neither K-peptide nor VV-peptide reduced neuronal survival

Ac-VQIVFK-R9—NH2 (Ac-VQIVFKRRRRRRRRR-NH2) [F-peptide]
neurotoxicity / effect on neuronal survival [1]: induces toxicity | A (maximum fluorescence, fitted kinetic parameter) ([3]; 10 μM peptide, 33 μM heparin, 100 μM ThS, Buffer A pH 7.2, 21° C., NA = no aggregation observed by ThS fluorescence, ±10% error): 5.5 | self-aggregation in vitro ([3]; ThS fluorescence, heparin, 10 μM concentration): aggregate in a fashion similar to the Core peptide; also recorded: capable of self-aggregation in vitro

Ac-^306VQIVYK^311-NH2 [AcPHF6]
critical concentration above which peptide polymerizes into amyloid fibrils [4]: about 2 μM

SQIVYA-R9 (SQIVYARRRRRRRRR) [SQ-peptide, de novo non-tau aggregating peptide]
neurotoxicity in culture [5]: neither of these two peptides displayed neurotoxicity | A (first phase / growth curve) ([3]; ThS fluorescence): 8.8 | morphology of aggregates [6]: irregular non-uniform filaments similar to V-peptide

STVIIE-R9 (STVIIERRRRRRRRR) [ST-peptide, non-tau aggregating peptide previously described by Pastor et al, reference compound]
neurotoxicity in culture [5]: neither of these two peptides displayed neurotoxicity | lag time ([3]; ThS fluorescence): ~3000 s | A (first phase / growth curve) ([3]; ThS fluorescence): 4.9 | A′ (second period of more rapid aggregation) ([3]; according to Eqn. [2]): 6.3 | diameter of fibrils / filaments / amyloid bodies / fibers ([6]; overnight): 10-40 nm | morphology of aggregates [6]: amyloid sheets which appear to roll into irregular fibers
